Assay results: PubChem BioAssay AID248 (DTP/NCI, 2004)
Several values for one entry are separate records, joined by “and”; a condition that tells them apart may be missing. Identical values can stand only once. Inconclusive results and toxic doses are left out. Cut-off read from the data, not from the text of the source: active = T/C of 150% or more; inactive = T/C below 125%.

Tested on: L1210 leukemia ip in BDF1 mice, survival T/C
Test: NCI In Vivo Anticancer Drug Screen. Data for tumor model L1210 Leukemia (intraperitoneal) in B6D2F1 (BDF1) mice
Details: endpoint: mean survival time, higher = longer survival
Method in brief: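 Transplanted-tumor mice were given test agent; controls received vehicle only. Survival readings from the two groups were divided (treated over control).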

[1] = dose: 100.0 mg/kg/injection, schedule: Q01DX009 (ip), vehicle: saline with Tween-80
[2] = dose: 100.0 mg/kg/injection, schedule: Q04DX003 (ip), vehicle: saline with Tween-80
[3] = dose: 200.0 mg/kg/injection, schedule: Q01DX009 (ip), vehicle: saline with Tween-80
[4] = dose: 200.0 mg/kg/injection, schedule: Q04DX003 (ip), vehicle: saline with Tween-80
[5] = dose: 400.0 mg/kg/injection, schedule: Q01DX009 (ip), vehicle: saline with Tween-80
[6] = dose: 400.0 mg/kg/injection, schedule: Q04DX003 (ip), vehicle: saline with Tween-80
[7] = dose: 100.0 mg/kg/injection, schedule: Q01DX001 (ip), vehicle: saline
[8] = dose: 200.0 mg/kg/injection, schedule: Q01DX001 (ip), vehicle: saline
[9] = dose: 400.0 mg/kg/injection, schedule: Q01DX001 (ip), vehicle: saline
[10] = dose: 100.0 mg/kg/injection, schedule: Q04DX003 (ip), vehicle: saline
[11] = dose: 200.0 mg/kg/injection, schedule: Q04DX003 (ip), vehicle: saline
[12] = dose: 50.0 mg/kg/injection, schedule: Q01DX001 (ip), vehicle: saline
[13] = dose: 100.0 mg/kg/injection, schedule: Q04DX003 (ip), vehicle: Klucel (hydroxypropylcellulose) (HPC)
[14] = dose: 200.0 mg/kg/injection, schedule: Q04DX003 (ip), vehicle: Klucel (hydroxypropylcellulose) (HPC)

Measured: T/C

CCC(CO)NC(=O)Nc1cccc2ccccc12 (centres undefined)
inactive: dose: 50.0 mg/kg/injection, schedule: Q04DX003 (ip), vehicle: saline with Tween-80 105 % of control | [1] 102 % of control | [2] 105 % of control | [3] 96 % of control | [4] 100 % of control | [5] 96 % of control | [6] 94 % of control

OB(Cc1ccccc1)c1ccccc1
inactive: [7] 97 % of control | [8] 89 % of control | [9] 97 % of control

Nc1ccc(-c2ccc(N)c(Cl)c2)cc1Cl
inactive: [10] 100 % of control | [11] 103 % of control | dose: 400.0 mg/kg/injection, schedule: Q04DX003 (ip), vehicle: saline 91 % of control

COc1ccc(C2C=CC(c3ccccc3)C(c3ccccc3)C2[N+](=O)[O-])cc1OC (centres undefined)
inactive: [2] 96 % of control | [4] 94 % of control | [6] 104 % of control

CCOC(=O)c1c[nH]c2c(Cl)cccc2c1=O
inactive: [12] 97 % of control | [7] 100 % of control | [8] 94 % of control | [9] 94 % of control

OCC1OC(n2cc(I)c3cncnc32)C(O)C1O (centres undefined)
inactive: dose: 12.5 mg/kg/injection, schedule: Q01DX005 (ip), vehicle: saline 102 % of control | dose: 25.0 mg/kg/injection, schedule: Q01DX005 (ip), vehicle: saline 106 % of control | dose: 50.0 mg/kg/injection, schedule: Q01DX005 (ip), vehicle: saline 106 % of control

COc1cc(C=O)c([N+](=O)[O-])cc1OC
inactive: [7] 102 % of control | [8] 102 % of control

c1ccc(P2(c3ccccc3)(c3ccccc3)C3C4C5C6C4C2C6C53)cc1 (centres undefined)
inactive: [2] 104 % of control | [4] 109 % of control | [6] 90 % of control

CC1=CC2=NC(=O)C(c3ccccc3)C(=O)N2C=C1 (centres undefined)
inactive: dose: 100.0 mg/kg/injection, schedule: Q01DX009 (ip), vehicle: Klucel (hydroxypropylcellulose) (HPC) 90 % of control | [13] 90 % of control | dose: 200.0 mg/kg/injection, schedule: Q01DX009 (ip), vehicle: Klucel (hydroxypropylcellulose) (HPC) 100 % of control | [14] 103 % of control | dose: 400.0 mg/kg/injection, schedule: Q01DX009 (ip), vehicle: Klucel (hydroxypropylcellulose) (HPC) 86 % of control | dose: 400.0 mg/kg/injection, schedule: Q04DX003 (ip), vehicle: Klucel (hydroxypropylcellulose) (HPC) 97 % of control

[C-]#[N+]C1(C)CC1(c1ccccc1)c1ccccc1 (centres undefined)
inactive: dose: 50.0 mg/kg/injection, schedule: Q04DX003 (ip), vehicle: saline 103 % of control | [10] 110 % of control | [11] 95 % of control

Cc1ncc(CO)c2c1OC(C)(C)OC2
inactive: [12] 97 % of control | [7] 100 % of control | [8] 103 % of control | [9] 100 % of control

O=S(=O)(Cl)c1cccc2cc3ccccc3cc12
inactive: [7] 92 % of control | [1] 107 % of control | [8] 100 % of control | [3] 102 % of control | [9] 98 % of control | [5] 103 % of control

CCOC(=O)Nc1cc(NC(c2ccccc2)c2ccccc2)c([N+](=O)[O-])c(NC/C(C)=N/NC(N)=O)n1
inactive: dose: 100.0 mg/kg/injection, schedule: Q01DX001 (ip), vehicle: carboxymethylcellulose (CMC) 95 % of control | dose: 200.0 mg/kg/injection, schedule: Q01DX001 (ip), vehicle: carboxymethylcellulose (CMC) 93 % of control | dose: 400.0 mg/kg/injection, schedule: Q01DX001 (ip), vehicle: carboxymethylcellulose (CMC) 89 % of control

O=[N+]([O-])c1cccc(/C=C/C=C/c2ccc(S(=O)(=O)F)cc2Cl)c1
inactive: [1] 100 % of control | [2] 94 % of control | [3] 93 % of control | [4] 95 % of control | [5] 91 % of control | [6] 90 % of control

Cc1ccc(C(=O)CCl)o1
inactive: [2] 106 % of control | [4] 116 % of control

O=C(C[n+]1ccc(-c2ccccc2)cc1)c1ccccc1
inactive: [10] 109 % of control | [11] 105 % of control

N#Cc1cc2c3c(c1)CCCN3CCC2
inactive: dose: 50.0 mg/kg/injection, schedule: Q01DX009 (ip), vehicle: saline with Tween-80 91 % of control | [1] 93 % of control | [3] 90 % of control | [5] 96 % of control

CCN(CC)CCC(=O)OC(c1ccccc1)C1(O)CCSC1 (centres undefined)
inactive: [13] 106 % of control | [14] 96 % of control

C(=P(c1ccccc1)(c1ccccc1)c1ccccc1)[P+](c1ccccc1)(c1ccccc1)c1ccccc1
inactive: dose: 0.78 mg/kg/injection, schedule: Q01DX009 (ip), vehicle: saline 102 % of control and 109 % of control | dose: 1.56 mg/kg/injection, schedule: Q01DX009 (ip), vehicle: saline 98 % of control and 88 % of control | dose: 3.12 mg/kg/injection, schedule: Q01DX009 (ip), vehicle: saline 100 % of control | dose: 3.13 mg/kg/injection, schedule: Q01DX001 (ip), vehicle: saline 90 % of control | dose: 3.13 mg/kg/injection, schedule: Q04DX002 (ip), vehicle: saline 97 % of control | dose: 3.13 mg/kg/injection, schedule: Q04DX003 (ip), vehicle: saline 102 % of control | dose: 6.0 mg/kg/injection, schedule: Q01DX009 (ip), vehicle: saline 106 % of control | dose: 6.25 mg/kg/injection, schedule: Q01DX001 (ip), vehicle: saline 100 % of control | dose: 6.25 mg/kg/injection, schedule: Q01DX009 (ip), vehicle: saline 117 % of control | dose: 6.25 mg/kg/injection, schedule: Q04DX002 (ip), vehicle: saline 96 % of control and 100 % of control | dose: 6.25 mg/kg/injection, schedule: Q04DX003 (ip), vehicle: saline 106 % of control | dose: 9.3 mg/kg/injection, schedule: Q01DX009 (ip), vehicle: saline 95 % of control | dose: 12.5 mg/kg/injection, schedule: Q01DX001 (ip), vehicle: saline 97 % of control | dose: 12.5 mg/kg/injection, schedule: Q01DX009 (ip), vehicle: saline 115 % of control and 117 % of control | dose: 12.5 mg/kg/injection, schedule: Q04DX002 (ip), vehicle: saline 97 % of control and 99 % of control | dose: 12.5 mg/kg/injection, schedule: Q04DX003 (ip), vehicle: saline 101 % of control | dose: 13.0 mg/kg/injection, schedule: Q01DX009 (ip), vehicle: saline 93 % of control | dose: 100.0 mg/kg/injection, schedule: Q04DX002 (ip), vehicle: saline 90 % of control | dose: 200.0 mg/kg/injection, schedule: Q04DX002 (ip), vehicle: saline 93 % of control

CO[C](=O)[Hg][c]1ccc(N=Cc2ccc(N(C)C)cc2Cl)cc1
inactive: dose: 1.56 mg/kg/injection, schedule: Q01DX001 (ip), vehicle: saline with Tween-80 99 % of control | dose: 3.13 mg/kg/injection, schedule: Q01DX001 (ip), vehicle: saline with Tween-80 103 % of control | dose: 6.25 mg/kg/injection, schedule: Q01DX001 (ip), vehicle: saline with Tween-80 89 % of control

CC1CCCC/C1=N/O (centres undefined)
inactive: [7] 100 % of control | dose: 100.0 mg/kg/injection, schedule: Q01DX009 (ip), vehicle: saline 97 % of control | [8] 92 % of control | dose: 200.0 mg/kg/injection, schedule: Q01DX009 (ip), vehicle: saline 105 % of control | [9] 91 % of control | dose: 400.0 mg/kg/injection, schedule: Q01DX009 (ip), vehicle: saline 97 % of control
